The assay addresses T1, human PAD4 (Homo sapiens, UniProt Q9UM07).
T1 construct: human PAD4 (NM_012387), A2-P663, was PCR amplified; His-SUMO (N, cleaved yes); made in house; host or cells: E. coli BL21(DE3)
Nature of the assay: In vitro PAD4 BAEE biochemical assay. Conditions: BAEE substrate 3 mM, 5 nM PAD4, 2 mM calcium chloride; geometric mean of multiple experiments. An excerpt: In Vitro PAD4 BAEE Biochemical Assay
The enzymatic activity of human PAD4 was monitored in a biochemical assay in the presence or absence of compounds using the small peptidyl arginine mimic BAEE (Na-Benzoyl-L-arginine ethyl ester hydrochloride) as substrate. PAD4 activity led to deimination of BAEE and release of ammonia. Levels of ammonia were monitored by using an amine coupling reaction and were indicative of PAD4 enzymatic activity.
One hundred nanoliters of test compounds dissolved in DMSO at various concentrations were dispensed into a 384-well black OptiPlate using a Labcyte Echo instrument. Ten microliters of a solution of recombinant PAD4 and calcium chloride diluted in PAD4 assay buffer (50 mM MOPS [3-(N-morpholino) propanesulfonic acid], pH 7.6; 50 mM sodium chloride; 0.05% Tween-20; 2 mM dithiothreitol) was added to the compound-containing plate and was incubated for 30 minutes at 25° C. Ten microliters of a solution of BAEE (Sigma-Aldrich #B4500) diluted in PAD4 assay buffer was then added to start the reaction. Final concentrations were 5 nM PAD4, 2 mM calcium chloride, and 3 mM BAEE. The reaction mixture was incubated at 25° C. for 2 hours and was stopped with the addition of 10 microliters of a solution of 75 mM EDTA (Ethylenediaminetetraacetic acid) in PAD4 assay buffer. Thirty microliters of detection solution (5 mM o-phthalaldehyde, 50 mM MOPS [3-(N-morpholino) propanesulfonic acid], pH 7.6; 50 mM sodium chloride; 0.05% Tween-20; 5 mM dithiothreitol) was then added and the reaction was incubated for 1 hour at 25° C. The level of fluorescent thiol-substituted isoindole resulting from the reaction of ammonia, o-phthalaldehyde, and dithiothreitol was measured on an Envision plate reader (PerkinElmer) with 405 nm excitation and 535 nm emission.
Data were normalized based on maximum inhibition (50 micromolar of the covalent PAD inhibitor BB-Cl-Amidine (Bicker, K. L.; Anguish, L.; Chumanevich, A. A.; Cameron, M. D.; Cui, X.; Witalison, E.; Subramanian, V.; Zhang, X.; Chumanevich, A. P.; Hofseth, L. J.; Coonrod, S. A.; Thompson, P. R. ACS Med. Chem. Lett. 2012, 3, 1081-1085). and no inhibition (DMSO) controls. Least squares curve fittings were performed using a four-parameter variable slope nonlinear regression model. IC50 is defined as the concentration of compound required to inhibit 50% of maximum activity. IC50 values from multiple experiments were averaged by geometric mean and the standard deviation was calculated.

T1 sequence (Q9UM07 2-663): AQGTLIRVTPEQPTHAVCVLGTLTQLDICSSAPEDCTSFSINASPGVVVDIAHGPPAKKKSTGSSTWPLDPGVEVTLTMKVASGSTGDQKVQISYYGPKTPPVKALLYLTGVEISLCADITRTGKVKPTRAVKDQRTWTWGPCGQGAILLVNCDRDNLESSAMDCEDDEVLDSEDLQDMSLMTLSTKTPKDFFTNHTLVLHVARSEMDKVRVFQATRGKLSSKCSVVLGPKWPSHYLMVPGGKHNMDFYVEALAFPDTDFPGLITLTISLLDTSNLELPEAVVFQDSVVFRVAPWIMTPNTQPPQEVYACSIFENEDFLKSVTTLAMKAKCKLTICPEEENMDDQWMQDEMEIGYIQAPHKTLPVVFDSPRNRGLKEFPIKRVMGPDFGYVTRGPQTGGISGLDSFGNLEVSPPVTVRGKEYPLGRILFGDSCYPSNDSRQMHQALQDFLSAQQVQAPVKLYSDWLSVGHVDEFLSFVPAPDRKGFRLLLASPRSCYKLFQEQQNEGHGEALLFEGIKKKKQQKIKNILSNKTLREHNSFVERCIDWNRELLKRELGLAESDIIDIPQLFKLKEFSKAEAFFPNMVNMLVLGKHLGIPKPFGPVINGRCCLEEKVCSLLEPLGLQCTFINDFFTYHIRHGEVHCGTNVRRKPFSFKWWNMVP

Usually IC50 stands for the concentration that inhibits the measured activity by half. Turning to `COc1cc(C(=O)N[C@H]2CNCC[C@@H]2F)cc2nc(-c3cc4ccc5nc4n3CCCCCc3nccnc3C(=O)N[C@@H]5C)n(C)c12` [Example 241, ~{N}-[(3~{S},4~{S})-4-fluoro-3-piperidyl]-7-methoxy-1-methyl-2-[(2~{R})-2-methyl-4-oxo-3,6,9,16,22-pentazatetracyclo[14.5.2.0^{5,10}.0^{19, 23}]tricosa-1(21),5(10),6,8,17,19,22-heptaen-17-yl]benzimidazole-5-carboxamide], the IC50 was 82 nM.

As to `COc1cc(C(=O)N2[C@H]3CC[C@@H]2[C@H](N)C3)cc2nc(-c3cc4ccc5nc4n3C[C@@H]3C[C@H]3COCC(=O)N[C@@H]5C)c(C)n12` [Example 326, (3~{R},5~{R},11~{R})-17-[7-[(1~{R},2~{R},4~{S})-2-amino-7-azabicyclo[2.2.1]heptane-7-carbonyl]-5-methoxy-3-methyl-imidazo[1,2-a]pyridin-2-yl]-11-methyl-7-oxa-1,10,19-triazatetracyclo[10.5.2.0^{3,5}.0^{15,18}] nonadeca-12(19),13,15(18),16-tetraen-9-one], the IC50 was 30 nM.

For `COc1cc(C(=O)N[C@H]2CNCCC2(F)F)cc2nc(-c3cc4ccc5nc4n3CCCCCCC(C)(C)C(=O)N[C@@H]5C)n(C)c12` [Example 294, ~{N}-[(3~{S})-4,4-difluoro-3-piperidyl]-7-methoxy-1-methyl-2-[(11~{R})-8,8,11-trimethyl-9-oxo-1,10,19-triazatricyclo[10.5.2.0^{15,18}]nonadeca-12(19),13,15(18),16-tetraen-17-yl]benzimidazole-5-carboxamide], the IC50 was determined as 275 nM.

On to `C[C@H]1NC(=O)c2ccc(Cl)nc2CCCCCn2c(-c3nc4cc(C(=O)N5C[C@H](N)[C@@H]6CC[C@H]5C6)cc(Cl)c4n3C3CC3)cc3ccc1nc32` [Example 812, (2~{R})-17-[5-[(1~{S},4~{R}, 5~{R})-4-amino-2-azabicyclo [3.2.1]octane-2-carbonyl]-7-chloro-1-cyclopropyl-benzimidazol-2-yl]-8-chloro-2-methyl-3,9,16,22-tetrazatetracyclo[14.5.2.0^ {5,10}.0^{19,23}]tricosa-1(21),5(10),6,8,17,19,22-heptaen-4-one], for which the IC50 is 31 nM.

Turning to `[2H]C1([2H])CCCn2c(-c3nc4cc(C(=O)N5C[C@H](N)[C@@H]6CC[C@H]5C6)cc(F)c4n3C3CC3)cc3ccc(nc32)[C@@H](C)NC(=O)c2ccc(Cl)nc2C1([2H])[2H]` [Example 951, (2~{R})-17-[5-[(1~{S},4~{R}, 5~{R})-4-amino-2-azabicyclo [3.2.1]octane-2-carbonyl]-1-cyclopropyl-7-fluoro-benzimidazol-2-yl]-8-chloro-11,11,12,12-tetradeuterio-2-methyl-3,9,16,22-tetrazatetracyclo[14.5.2.0^ {5,10).0^{19,23}]tricosa-1(22),5(10),6,8,17,19(23),20-heptaen-4-one], the half-inhibitory concentration (IC50) turned out to be 24 nM.

Regarding `COc1cc(C(=O)N2CCC[C@@H](N)C2)cc2nc(-c3cc4ccc5nc4n3C[C@H]3C[C@@H]3COC(C)CC(=O)N[C@@H]5C)n(C)c12` (stereo partly drawn) [Example 271, (3~{S},5~{S},12~{R})-18-[5-[(3~{R})-3-aminopiperidine-1-carbonyl]-7-methoxy-1-methyl-benzimidazol-2-yl]-8,12-dimethyl-7-oxa-1,11,20-triazatetracyclo[11.5.2.0^{3,5}.0^{16,19}] icosa-13(20),14,16(19),17-tetraen-10-one], the IC50 is 65 nM.

Regarding `COc1cc(C(=O)N2C[C@H](N)[C@@H]3CC[C@H]2C3)cc2nc(-c3cc4ccc5nc4n3CCCCCC[C@H](c3ccccn3)C(=O)N[C@@H]5C)n(C)c12` [Example 892, (8~{R},11~{R})-17-[5-[(1~{S},4~{R},5~{R})-4-amino-2-azabicyclo[3.2.1]octane-2-carbonyl]-7-methoxy-1-methyl-benzimidazol-2-yl]-11-methyl-8-(2-pyridyl)-1,10,19-triazatricyclo[10.5.2.0^{15,18}] nonadeca-12(19), 13,15(18),16-tetraen-9-one], the half-inhibitory concentration (IC50) was 27 nM.

For `COc1cc(C(=O)N2CCC[C@@H](N)C2)cc2nc(-c3cc4ccc5nc4n3CC3(CCCCCC(=O)N[C@@H]5C)CC3)n(C)c12` [Example 114, (11~{R})-17-[5-[(3~{R})-3-aminopiperidine-1-carbonyl]-7-methoxy-1-methyl-benzimidazol-2-yl]-11-methyl-spiro[1,10,19-triazatricyclo[10.5.2.0^{15,18}]nonadeca-12(19),13,15(18),16-tetraene-3,1′-cyclopropane]-9-one], the IC50 came out at 61 nM.

`COc1cc(C(=O)N2CC[C@@H](OC)[C@@H](N)C2)cc2nc(-c3cc4ccc5nc4n3Cc3ccccc3C/C=C/CC(=O)N[C@@H]5C)n(C)c12` [Example 239, (10~{E},15~{R})-21-[5-[(3~{S},4~{R})-3-amino-4-methoxy-piperidine-1-carbonyl]-7-methoxy-1-methyl-benzimidazol-2-yl]-15-methyl-1,14,23-triazatetracyclo[14.5.2.0^{3,8}.0^{19,22}] tricosa-3(8),4,6,10,16,18,20,22-octaen-13-one]: the IC50 was 583 nM.

For the compound `COc1cc(C(=O)N2CC[C@@H](OC)[C@@H](N)C2)cc2nc(-c3cc4ccc5nc4n3CCCCCc3ccccc3C(=O)N[C@@H]5C)n(C)c12` [Example 43, (2~{R})-17-[5-[(3~{S},4~{R})-3-amino-4-methoxy-piperidine-1-carbonyl]-7-methoxy-1-methyl-benzimidazol-2-yl]-2-methyl-3,16,22-triazatetracyclo[14.5.2.0^{5,10}.0^{19,23}] tricosa-1(22),5,7,9,17,19(23),20-heptaen-4-one], the half-maximal inhibitory concentration (IC50) was determined as 118 nM.

For `COc1cc(C(=O)N2CC[C@@H](OC)[C@@H](N)C2)cc2nc(-c3cc4ccc5cc4n3CCCCCCC(C)(C)C(=O)N[C@@H]5C)n(C)c12` [Example 173, (11~{R})-17-[5-[(3~{S},4~{R})-3-amino-4-methoxy-piperidine-1-carbonyl]-7-methoxy-1-methyl-benzimidazol-2-yl]-8,8,11-trimethyl-1,10-diazatricyclo[10.5.2.0^{15,18}]nonadeca-12(19),13,15(18),16-tetraen-9-one], the IC50 stood at 109 nM.

On to `COc1cc(C(=O)N2C[C@H](N)[C@@H]3CC[C@H]2C3)cc2nc(-c3cc4ccc5nc4n3CCCCCc3nc(C(F)(F)F)ncc3C(=O)N[C@@H]5C)n(C3CC3)c12` [Example 934, (2~{R})-17-[5-[(1~{S),4~{R},5~ {R})-4-amino-2-azabicyclo [3.2.1]octane-2-carbonyl]-1-cyclopropyl-7-methoxy-benzimidazol-2-yl]-2-methyl-8-(trifluoromethyl)-3,7,9,16,22-pentazatetracyclo[14.5.2.0^ {5,10}.0^{19,23}]tricosa-1(21),5(10),6,8,17,19,22-heptaen-4-one], for which the IC50 stood at 103 nM.

On to `C[C@H]1NC(=O)c2ccc(Cl)nc2CCCCCn2c(-c3nc4cc(C(=O)N5C[C@H](N)[C@@H]6CC[C@H]5C6)cc(F)c4n3C)cc3ccc1nc32` [Example 469, (2~{R})-17-[5-[(1~{S),4~{R},5~{R})-4-amino-2-azabicyclo[3.2.1]octane-2-carbonyl]-7-fluoro-1-methyl-benzimidazol-2-yl]-8-chloro-2-methyl-3,9,16,22-tetrazatetracyclo[14.5.2.0^{5,10).0^ {19,23)]tricosa-1(21),5(10),6,8,17,19,22-heptaen-4-one], for which the IC50 worked out at 21 nM.

Take `COc1cc(C(=O)N[C@@H]2CNC[C@H]3C[C@H]32)cc2nc(-c3cc4ccc5nc4n3CCCCCCC(C)(C)C(=O)N[C@@H]5C)n(C)c12` [Example 201, ~{N}-[(1~{S),5~{S},6~{R})-3-azabicyclo[4.1.0]heptan-5-yl]-7-methoxy-1-methyl-2-[(11~{R})-8,8,11-trimethyl-9-oxo-1,10,19-triazatricyclo[10.5.2.0^{15,18}]nonadeca-12(19),13,15(18),16-tetraen-17-yl]benzimidazole-5-carboxamide]: the IC50 amounted to 737 nM.

`COc1cc(C(=O)N2C[C@H](N)[C@@H]3CC[C@H]2C3)cc2nc(-c3cc4ccc5nc4n3CC(F)(F)CCCCC3(CC3)C(=O)N[C@@H]5C)n(C3CC3)c12` [Example 940, (11~{R})-17-[5-[(1~{S},4~{R}, 5~{R})-4-amino-2-azabicyclo [3.2.1]octane-2-carbonyl]-1-cyclopropyl-7-methoxy-benzimidazol-2-yl]-3,3-difluoro-11-methyl-spiro[1,10,19-triazatricyclo [10.5.2.0^{15,18}]nonadeca-12(19),13,15(18),16-tetraene-8,1′-cyclopropane]-9-one]: the IC50 came out at 80 nM.

For the origin of these results see patent US11976083B2, “Inhibitors of peptidylarginine deiminases” (Gilead Sciences, Inc., priority 2020, dated 2024).
